Results reported in patent US10905683B2, “Compositions and uses of amidine derivatives” (BIOCRYST PHARMACEUTICALS, INC., priority 2014, dated 2021).
Converted amounts (≈) assume the structure as drawn.

Assays:
[1] = Polymorphic conversion of Form A under relative humidity; type: physicochemical; conditions: RH 43%, 75% and 100%, room temperature
Source text: In another embodiment, pharmaceutical compositions of Form A, in particular the oral pharmaceutical compositions described herein, when administered to a subject provide for increased bioavailability of the compound as compared to amorphous 3-[2-(4-carbamimidoyl-phenylcarbamoyl)-5-methoxy-4-vinylphenyl]-6-(cyclopropylmethyl-carbamoyl)-pyridine-2-carboxylic acid and salts thereof and other crystalline forms. In another embodiment, pharmaceutical compositions of Form A, in particular the oral pharmaceutical compositions described herein, when administered to a subject for treating a condition, is sufficient to affect such treatment. In another embodiment, pharmaceutical compositions of Form A, in particular the oral pharmaceutical compositions described herein, when administered to a subject for treating a condition, is sufficient to affect such treatment when dosed 1 to 3 times per day or less (such as 1 to 2 times). In another embodiment, pharmaceutical compositions of Form A, in particular the oral pharmaceutical compositions described wherein when administered to a subject provide for a therapeutically effective amount of the compound of at least 10 ng/ml, at least 15 ng/ml or at least 25 ng/ml in the blood of the subject for a period of at least from two hours to four hours after administration to a subject. […]

[2] = Concentration achieved in formulations and excipient mixtures; type: physicochemical; conditions: in the (oral) pharmaceutical compositions described
Procedure: In initial formulation work for the amidine compounds described herein, in particular 3-[2-(4-carbamimidoyl-phenylcarbamoyl)-5-methoxy-4-vinyl-phenyl]-6-(cyclopropylmethyl-carbamoyl)-pyridine-2-carboxylic acid, extensive studies were carried out to identify a suitable mixture of excipients to produce the oral formulation described herein.
Specifically, a variety of approaches were taken to develop suitable oral formulations of 3-[2-(4-carbamimidoyl-phenylcarbamyl)-5-methoxy-4-vinyl-phenyl]-6-(cyclopropylmethyl-carbamoyl)-pyridine-2-carboxylic acid. The approaches taken included use of a variety of hydrophilic polymers, including α-cyclodextrin and a polyanionic 3-cyclodextrin derivative with a sodium sulfonate salt separated from the lipophilic cavity by a butyl ether or sulfobutylether spacer group in combination with a variety of co-solvents. In addition, the compound was evaluated in formulations created by a number of different technologies (such as dry blends, nanosuspensions, solid dispersion and emulsions) using a variety of approaches.

[3] = octanol-PBS pH 7.4 partition coefficient (log D7.4) assay; type: physicochemical; conditions: octanol/0.01 M phosphate buffer pH 7.4, 24 hours, LC/MS/MS
Procedure: A 1 μL volume of a 1 mM stock solution of the compound in dimethyl sulfoxide (DMSO) was added to 500 μL 0.01 M phosphate buffer pH 7.4 (saturated with octanol) and 500 μL of octanol (saturated with 0.01 M phosphate buffer). […] Samples were prepared in triplicate.

[4] = Aqueous solubility assay in buffer and simulated gastric/intestinal fluids; conditions: 37 °C, thermodynamic from solid, Observed Solubility, Target 100 μM, 24 hours
Procedure: The target concentration in each solution was 100 μM. […] The aqueous solutions were added (1 mL) to the dried samples and mixed at 400 rpm at 37° C. on an orbital plate shaker. […] Samples were prepared in triplicate. Testosterone and verapamil were used as reference compounds.

In the case of `C=Cc1cc(C(=O)Nc2ccc(C(=N)N)cc2)c(-c2ccc(C(=O)NCC3CC3)nc2C(=O)O)cc1OC.Cl` [Form A, 3-[2-(4-Carbamimidoylphenylcarbamoyl)-5-methoxy-4-vinylphenyl]-6-(cyclopropylmethylcarbamoyl)pyridine-2-carboxylic acid hydrochloride], the “conversion to other polymorphic forms” value [1] is reported as “not observed” and the concentration solubilized [2] is reported as “greater than 140 mg/ml”.

Compound `C[C@@H]1C[C@H]2[C@@H]3CCC4=CC(=O)C=C[C@]4(C)[C@@]3(F)[C@@H](O)C[C@]2(C)[C@@]1(O)C(=O)CO` [Dexamethasone, reference compound] has a logD at 24 h [3] of 1.5.

For `C[C@]12CC[C@H]3[C@@H](CCC4=CC(=O)CC[C@@]43C)[C@@H]1CC[C@@H]2O` [Testosterone, reference compound], the solubility at 24 h ([4]; fassgf or other biorelevant, Fasted-State SGF) was 43 µM (≈ 12.4 µg/mL), the solubility at 24 h ([4]; fassgf or other biorelevant, Fed-State SGF) was 27 µM (≈ 7.79 µg/mL) and the solubility at 24 h ([4]; fassif, Fasted-State SIF) was 35 µM (≈ 10.1 µg/mL). For the same compound, the solubility at 24 h ([4]; fessif, Fed-State SIF) was 36 µM (≈ 10.4 µg/mL) and the solubility at 24 h ([4]; pH 7.4, aqueous buffer, 0.1M phosphate buffer pH 7.4, 37° C.) was 42 µM (≈ 12.1 µg/mL).
